Measured values taken from US20230210771A1, “COMPOSITIONS FOR THE DELIVERY OF THERAPEUTIC AGENTS AND METHODS OF USE AND MAKING THEREOF” (priority 2020, published 2023).

Test: Terpene concentration (HPLC, GC-FID)
Format: physicochemical
Conditions: terpene content of hemp distillate + alpha-pinene lipid nanoparticle formulation (Example 34), diluted to theoretical 12 mg/mL CBD
Method: A 5 Liter manufacturing batch was analyzed by high pressure liquid chromatography (HPLC) to measure Terpenes present in the sample.
When all ingredients were dissolved, the solvent was removed to form a dried composition. The resulting particle size and zeta potential were determined using a Malvern ZetaSizer and cannabinoid concentrations were determined by UPLC. Terpene concentrations were determined by GC-FID.

Structure (SMILES)	Measured Concentration (mg/g) of terpene	Measured Concentration (w/w %) of terpene
C=C1CC/C=C(\C)CC[C@@H]2[C@@H]1CC2(C)C [Beta-Caryophyllene]	0.026 mg/g	0.003%
C=C1C2CCC(C2)C1(C)C (centres unmarked) [Camphene]	0.046 mg/g	0.005%
CC1=CCC2C(C1)C2(C)C (centres unmarked) [Carene]	<LOQ	<LOQ
C=C1CC[C@H]2O[C@]2(C)CC[C@@H]2[C@@H]1CC2(C)C [Caryophyllene Oxide]	<LOQ	<LOQ
CC12CCC(CC1)C(C)(C)O2 [Eucalyptol]	<LOQ	<LOQ
CC(C)=CCC/C(C)=C/CO [Geraniol]	<LOQ	<LOQ
C/C1=C\CC/C(C)=C/CC(C)(C)/C=C/C1 [Humulene]	<LOQ	<LOQ
C=C(C)[C@@H]1CC[C@@H](C)C[C@H]1O [Isopulegol]	<LOQ	<LOQ
C=CC(C)(O)CCC=C(C)C (centres unmarked) [Linalool]	<LOQ	<LOQ
CC1=CCC(=C(C)C)CC1 [Terpinolene]	<LOQ	<LOQ
CC(C)=CCC[C@](C)(O)[C@@H]1CC=C(C)CC1 [alpha-Bisabolol]	0.062 mg/g	0.006%
C[C@H]1CC[C@@H](C(C)(C)O)CC2=C1CC[C@@H]2C [alpha-Guaiol]	0.023 mg/g	0.002%
CC1=CCC2CC1C2(C)C (stereo not drawn) [alpha-Pinene]	5.205 mg/g	0.521%
C=CC(=C)CCC=C(C)C [beta-Myrecene]	<LOQ	<LOQ
C=C1CCC2CC1C2(C)C (stereo not drawn) [beta-Pinene]	0.026 mg/g	0.003%
C=CC(C)(O)CC/C=C(/C)CCC=C(C)C (stereo not drawn) [cis-Nerolidol]	<LOQ	<LOQ
C=C(C)[C@H]1CC=C(C)CC1 [delta-Limonene]	<LOQ	<LOQ
C=C/C(C)=C/CC=C(C)C [e-Ocimene]	<LOQ	<LOQ
Cc1ccc(C(C)C)cc1 [p-Cymene]	<LOQ	<LOQ
C=CC(C)(O)CC/C=C(\C)CCC=C(C)C (stereo not drawn) [trans-Nerolidol]	<LOQ	<LOQ
CC1=CCC(C(C)C)=CC1 [y-Terpinene]	<LOQ	<LOQ
C=C/C(C)=C\CC=C(C)C [z-Ocimene]	<LOQ	<LOQ
